Reference: patent US20200288710A1, “SUBSTITUTED SULPHONAMIDES FOR CONTROLLING ANIMAL PESTS” (BAYER CROPSCIENCE AKTIENGESELLSCHAFT, priority 2016, published 2020)

Columns and labels:
Type in all cases: in vivo
Meloidogyne incognita = Meloidogyne incognita test; settings: 336 h, lettuce, after 14 days, read-out: nematicidal efficacy (formation of galls)
Method in brief: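 Active compound in acetone, diluted with water, added to sand-filled vessels with M. incognita eggs/larvae and lettuce seeds. After 14 days, efficacy scored by root gall formation: 100% = no galls, 0% = galls equal to untreated control.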

Myzus persicae [1] = test: Myzus persicae spray test (Chinese cabbage leaf discs); settings: foliar, 120 h, 500 g/ha, after 5-6 days, read-out: efficacy
Method in brief: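 Chinese cabbage leaf discs infested with all stages of green peach aphid were sprayed with compound formulated in acetone/DMF and emulsifier-containing water. Efficacy in % was scored after 5-6 days, with 100% meaning all aphids killed and 0% none killed.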

Myzus persicae [2] = test: Myzus persicae oral test; settings: 120 h, 20 ppm, oral uptake, after 5 days, read-out: efficacy
Method in brief: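 Compound dissolved in acetone, diluted in water, then mixed 50:150 μl with IPL41 insect medium (33%+15% sugar). Mixed-population green peach aphids feed through a parafilm seal on the solution; mortality scored as % efficacy after 5 days (100% = all killed).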

CCc1ccsc1S(=O)(=O)NC(=O)c1cn(C)c(-c2c(F)cccc2F)n1 [Example 419]
pest or weed control at 20 ppm (Meloidogyne incognita): 90% | pest or weed control at 500 g/ha (Myzus persicae [1]): 100% | pest or weed control at 20 ppm (Myzus persicae [2]): 100%

Cn1cc(C(=O)NS(=O)(=O)c2sccc2Br)nc1-c1ccccc1Cl [Example 421]
pest or weed control at 20 ppm (Meloidogyne incognita): 90% | pest or weed control at 500 g/ha (Myzus persicae [1]): 100% | pest or weed control at 20 ppm (Myzus persicae [2]): 100%

CSc1cccc(Cl)c1S(=O)(=O)NC(=O)c1cn(C)c(-c2ccccc2Cl)n1 [Example 422]
pest or weed control at 20 ppm (Meloidogyne incognita): 90% | pest or weed control at 500 g/ha (Myzus persicae [1]): 90% | pest or weed control at 20 ppm (Myzus persicae [2]): 100%

Cn1cc(C(=O)NS(=O)(=O)c2sc(Cl)cc2Br)nc1-c1ccccc1Cl [Example 426]
pest or weed control at 20 ppm (Meloidogyne incognita): 90% | pest or weed control at 500 g/ha (Myzus persicae [1]): 100% | pest or weed control at 20 ppm (Myzus persicae [2]): 100%

COc1ccc(F)cc1S(=O)(=O)NC(=O)c1cn(C)c(-c2ccccc2Cl)n1 [Example 427]
pest or weed control at 20 ppm (Meloidogyne incognita): 90% | pest or weed control at 500 g/ha (Myzus persicae [1]): 100% | pest or weed control at 20 ppm (Myzus persicae [2]): 100%

Cn1cc(C(=O)NS(=O)(=O)c2c(F)cccc2Cl)nc1-c1c(F)cccc1F [Example 431]
pest or weed control at 20 ppm (Meloidogyne incognita): 90% | pest or weed control at 500 g/ha (Myzus persicae [1]): 90% | pest or weed control at 20 ppm (Myzus persicae [2]): 100%

Cn1cc(C(=O)NS(=O)(=O)c2c(Cl)cc(Cl)cc2Cl)nc1-c1c(F)cccc1F [Example 435]
pest or weed control at 20 ppm (Meloidogyne incognita): 90% | pest or weed control at 500 g/ha (Myzus persicae [1]): 100% | pest or weed control at 20 ppm (Myzus persicae [2]): 100%

Cn1cc(C(=O)NS(=O)(=O)c2ccc(Br)cc2F)nc1-c1c(F)cccc1F [Example 437]
pest or weed control at 20 ppm (Meloidogyne incognita): 90% | pest or weed control at 500 g/ha (Myzus persicae [1]): 100% | pest or weed control at 20 ppm (Myzus persicae [2]): 100%

Cn1cc(C(=O)NS(=O)(=O)c2ccc(F)cc2Br)nc1-c1c(F)cccc1F [Example 438]
pest or weed control at 20 ppm (Meloidogyne incognita): 90% | pest or weed control at 500 g/ha (Myzus persicae [1]): 100% | pest or weed control at 20 ppm (Myzus persicae [2]): 90%

Cn1cc(C(=O)NS(=O)(=O)c2ccc(Br)cc2Cl)nc1-c1c(F)cccc1F [Example 440]
pest or weed control at 20 ppm (Meloidogyne incognita): 100% | pest or weed control at 500 g/ha (Myzus persicae [1]): 100% | pest or weed control at 20 ppm (Myzus persicae [2]): 100%

Cc1ccc(S(=O)(=O)NC(=O)c2cn(C)c(-c3c(F)cccc3F)n2)c(C)c1 [Example 443]
pest or weed control at 20 ppm (Meloidogyne incognita): 100% | pest or weed control at 500 g/ha (Myzus persicae [1]): 90% | pest or weed control at 20 ppm (Myzus persicae [2]): 100%

Cc1cc(F)ccc1S(=O)(=O)NC(=O)c1cn(C)c(-c2c(F)cccc2F)n1 [Example 444]
pest or weed control at 20 ppm (Meloidogyne incognita): 100% | pest or weed control at 500 g/ha (Myzus persicae [1]): 90% | pest or weed control at 20 ppm (Myzus persicae [2]): 100%

Cn1cc(C(=O)NS(=O)(=O)c2cc(C(F)(F)F)ccc2Cl)nc1-c1c(F)cccc1F [Example 453]
pest or weed control at 20 ppm (Meloidogyne incognita): 90% | pest or weed control at 500 g/ha (Myzus persicae [1]): 90% | pest or weed control at 20 ppm (Myzus persicae [2]): 100%

CCc1ccccc1-c1nc(C(=O)NS(=O)(=O)c2ccccc2C)cn1C [Example 497]
pest or weed control at 20 ppm (Meloidogyne incognita): 90% | pest or weed control at 500 g/ha (Myzus persicae [1]): 90% | pest or weed control at 20 ppm (Myzus persicae [2]): 100%

Cn1cc(C(=O)NS(=O)(=O)c2ccccc2Cl)nc1-c1ncccc1F [Example 499]
pest or weed control at 20 ppm (Meloidogyne incognita): 90% | pest or weed control at 500 g/ha (Myzus persicae [1]): 100% | pest or weed control at 20 ppm (Myzus persicae [2]): 100%

Cc1ccccc1S(=O)(=O)NC(=O)c1cn(C)c(-c2ncccc2F)n1 [Example 500]
pest or weed control at 20 ppm (Meloidogyne incognita): 90% | pest or weed control at 500 g/ha (Myzus persicae [1]): 100% | pest or weed control at 20 ppm (Myzus persicae [2]): 100%

CCc1ccccc1S(=O)(=O)NC(=O)c1cn(C)c(-c2cccc3ccccc23)n1 [Example 503]
pest or weed control at 20 ppm (Meloidogyne incognita): 90% | pest or weed control at 500 g/ha (Myzus persicae [1]): 90% | pest or weed control at 20 ppm (Myzus persicae [2]): 100%

Cn1cc(C(=O)NS(=O)(=O)c2ccccc2Cl)nc1-c1cccc(F)c1F [Example 512]
pest or weed control at 20 ppm (Meloidogyne incognita): 90% | pest or weed control at 500 g/ha (Myzus persicae [1]): 90% | pest or weed control at 20 ppm (Myzus persicae [2]): 100%

Cn1cc(C(=O)NS(=O)(=O)c2ccccc2Cl)nc1-c1cccc(Cl)c1Cl [Example 513]
pest or weed control at 20 ppm (Meloidogyne incognita): 100% | pest or weed control at 500 g/ha (Myzus persicae [1]): 100% | pest or weed control at 20 ppm (Myzus persicae [2]): 100%

COc1ccc(Cl)c(S(=O)(=O)NC(=O)c2cn(C)c(-c3ncccc3F)n2)c1 [Example 514]
pest or weed control at 20 ppm (Meloidogyne incognita): 90% | pest or weed control at 500 g/ha (Myzus persicae [1]): 100% | pest or weed control at 20 ppm (Myzus persicae [2]): 100%

Cn1cc(C(=O)NS(=O)(=O)c2ccccc2Cl)nc1-c1cc(F)ccc1F [Example 515]
pest or weed control at 20 ppm (Meloidogyne incognita): 90% | pest or weed control at 500 g/ha (Myzus persicae [1]): 90% | pest or weed control at 20 ppm (Myzus persicae [2]): 100%

Cc1ccccc1S(=O)(=O)NC(=O)c1cn(C)c(-c2cc(F)ccc2F)n1 [Example 520]
pest or weed control at 20 ppm (Meloidogyne incognita): 100% | pest or weed control at 500 g/ha (Myzus persicae [1]): 90% | pest or weed control at 20 ppm (Myzus persicae [2]): 100%

COc1ccccc1S(=O)(=O)NC(=O)c1cn(C)c(-c2cccc(F)c2F)n1 [Example 528]
pest or weed control at 20 ppm (Meloidogyne incognita): 90% | pest or weed control at 500 g/ha (Myzus persicae [1]): 100% | pest or weed control at 20 ppm (Myzus persicae [2]): 100%
